Measured values from US20220380341A1, “INHIBITORS OF HIV-1 NEF FOR THE TREATMENT OF HIV DISEASE” (priority 2018, published 2022).
Like-named read-outs stand apart in the source and are kept apart here.

What was measured:
HIV-1NL4-3 = assay: HIV-1 infectivity assay in TZM-bl reporter cell line (LTR-luciferase, 48 h); format: cell-based; details: for inhibition at 1 µM: Human immunodeficiency virus 1, TZM-bl
Outline: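 Read-out is luciferase from an integrated HIV-1 LTR reporter in TZM-bl cells, 48 h after HIV-1NL4-3 infection in the presence of 1 μM compound. Scale set by DMSO-treated wild-type-infected cells (0%) and Nef-defective virus (100% Nef-dependent effect). Cell Titer Blue measures cytotoxicity without virus.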

TZM-bl cell line = format: cell-based
Outline: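 Nef-dependent infectivity in TZM-bl cells: HIV-1NL4-3 infection with 1 μM compound, luciferase read at 48 h, normalized against DMSO wild-type and Nef-defective controls. Compound cytotoxicity in uninfected cells measured by Cell Titer Blue.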

HIV-1 NefNL4-3 = HIV-1 NefNL4-3 (Human immunodeficiency virus type 1 group M subtype B, UniProt P03406, A33V/T15A/T51N/V11I); assay: Surface plasmon resonance binding to recombinant full-length Nef (NL4-3); details: for RU30/RUNef (extent of binding): response units at 30 μM relative to Nef immobilized on the SPR chip
HIV-1 NL4-3 = assay: HIV-1 replication in normal donor PBMCs (p24 Gag AlphaLISA); format: cell-based; details: Table 1, 4 days; for HIV Replication PBMC IC50 vs. HIV NL4-3: words (Not active, Borderline) where no bound is given
Experimental: FIG. 4. Inhibition of HIV-1 replication by compounds disclosed herein in PBMCs. Donor PBMCs were infected with HIV-1 in the presence of inhibitor concentrations ranging from 1 to 1,000 nM or the DMSO carrier solvent as a negative control (0.1% DMSO final). Replication was assessed by p24 Gag AlphaLISA (Perkin Elmer) […]. Each donor was also infected with Nef-defective HIV-1 to establish the baseline for Nef-dependent enhancement of replication in each culture. Cytotoxicity was assessed in uninfected PBMCs over the same incubation period using the CellTiter-Blue assay (Promega). Data were fit by non-linear regression analysis (GraphPad Prism v.7.04) to determine the IC50 and CC50 values shown.
The tables also show data for HIV-1 Replication in normal donor peripheral blood mononuclear cells (PBMCs), which is assay is conducted as follows:
Non-HLA-typed buffy coats (Source: Pittsburgh Central Blood Bank, #E3755) are received and processed within 24 hours of blood donation. PBMCs are isolated via rocking for RBC separation following 1:1 dilution with PBS, followed by Ficoll gradient centrifugation. The lymphocyte fraction is removed and washed several times for a final concentration of ˜150-300×10^6 cells per donor. Cells are activated for 3 days with 1-5 μg/mL PHA (Sigma) and 50 U/mL IL-2. Cells are plated at 750,000 cells/ml and viability is checked at day 3 using the Cell Titer Blue assay (Promega). If cells are >90% viable, then they are infected with HIV-1 NL4-3, wild-type or Δ-Nef mutant (input typically 30-500 pg/mL p24 capsid equivalents) in the presence or absence of Nef inhibitor analogs. IL-2 is included in the media at the time of infection. After 4 days, cells are lysed with 1% Triton X-100 for 1.5 h, checked for viability via Cell Titer Blue, and frozen/stored at −20° C. HIV-1 replication is assessed with a high-sensitivity HIV-1 p24 AlphaLISA assay (Perkin Elmer) in ½-volume 96-well plates, using one-half of the recommended assay volumes for all reagents (including samples). Assays are read on the BioTek Cytation5 instrument; readout is in AlphaUnits and replication in p24 pg/mL is determined using an HIV-1 p24 capsid protein standard included in the Alpha kit.

[1] = 1.0 μM, TZM-bl reporter cell line, Table 4, read-out: % Infectivity Inhibition
[2] = 48 h, Table 1, TZM-bl cells, 1 μM, 48 h, 100% = Nef-defective HIV-1, read-out: HIV-1 Infectivity % Inhibition Norm. to Δ-Nef @ 1 μM
[3] = read-out: Nef NL4-3 Binding, SPR 1:1 or 2-site fitting KD2, Table 1, 2-site fit, second component
[4] = KD, M, Table 4, SPR fit 2-step induced fit, KD = koff/kon × koff2/(koff2 + kon2)
[5] = Nef NL4-3 Binding, SPR 2-state fitting KD, Table 1, 2-step induced-fit model
[6] = Table 4, 2-step induced fit, T = 1/koff2
[7] = KD, M, Table 4, SPR fit 1:1 Langmuir, KD = koff/kon
[8] = Table 4, 1:1 Langmuir fit, T = 1/koff

Row | SMILES | inhibition at 1 µM (HIV-1NL4-3; [1]) [%] | inhibition at 1 µM (HIV-1NL4-3; [2]) [%] | % Cell Viability (TZM-bl cell line; human, 1 μM) [%] | Percent Viability @ 1 μM (TZM-bl cells) (TZM-bl cell line; human, 1 μM) [%] | Kd (HIV-1 NefNL4-3) [M] | RU30/RUNef (extent of binding) (HIV-1 NefNL4-3) | Kd (HIV-1 NefNL4-3; [4]) [M] | T, minutes (residence time) (HIV-1 NefNL4-3; [6]) | other results
1 | CC(C)(C)OC(=O)N1CCCCC1Cc1nn(-c2nc3ccccc3[nH]2)c(O)c1CCc1ccc(F)cc1 (centres unmarked) [Compound I-207, tert-butyl 2-{[1-(1H-1,3-benzodiazol-2-yl)-4-[2-(4-fluorophenyl)ethyl]-5-hydroxy-1H-pyrazol-3-yl]methyl}piperidine-1-carboxylate] | 0 | -9.4 | 99.3 | 99.3 | 1.49e-09 | 4.14E- 03 |  |  | Kd (HIV-1 NefNL4-3; [3]): 8.09e-07 M; IC50 (HIV-1 NL4-3; Human immunodeficiency virus 1, NL43, PBMC, 96 h): ≥ 1000 nM
2 | Oc1c(CC2CCCC2)c(-c2ccc(C(F)(F)F)cc2)nn1-c1nc2ccccc2[nH]1 [Compound I-123, 1-(1H-1,3-benzodiazol-2-yl)-4-(cyclopentylmethyl)-3-[4-(trifluoromethyl)phenyl]-1H-pyrazol-5-ol] | 96.1 | 96.1 | 85.3 | 85.3 | 8.88e-08 | 2.57E- 02 | 9.36e-11 | 3.79E + 05 minutes | Kd (HIV-1 NefNL4-3; [5]): 9.36e-11 M; Kd (HIV-1 NefNL4-3; [3]): 8.78e-05 M; HIV Replication PBMC IC50 vs. HIV NL4-3 (HIV-1 NL4-3): Not active
3 | CC(C)(C)OC(=O)N1CCC(c2nn(-c3nc4ccccc4[nH]3)c(O)c2CCc2ccc(F)cc2)CC1 [Compound I-202, tert-butyl 4-[1-(1H-1,3-benzodiazol-2-yl)-4-[2-(4-fluorophenyl)ethyl]-5-hydroxy-1H-pyrazol-3-yl]piperidine-1-carboxylate] | 100 | 105 | 79.2 | 79.2 |  | 4.09E- 03 | 6.05e-12 | 6.36E + 06 minutes | Kd (HIV-1 NefNL4-3; [5]): 2.22e-06 M; HIV Replication PBMC IC50 vs. HIV NL4-3 (HIV-1 NL4-3): Not active
4 | Oc1c(CCc2ccc(F)cc2)c(-c2ccc(C(F)(F)F)cn2)nn1-c1nc2cc(F)ccc2[nH]1 [Compound I-167, 1-(5-fluoro-1H-1,3-benzodiazol-2-yl)-4-[2-(4-fluorophenyl)ethyl]-3-[5-(trifluoromethyl)pyridin-2-yl]-1H-pyrazol-5-ol] | 52.1 | 52.1 | 81.2 | 81.2 | 2.99e-07 | 1.11E- 02 | 2.02e-09 | 5.05E + 03 minutes | Kd (HIV-1 NefNL4-3; [5]): 2.02e-09 M; Kd (HIV-1 NefNL4-3; [3]): 1.74e-06 M; HIV Replication PBMC IC50 vs. HIV NL4-3 (HIV-1 NL4-3): Not active
5 | Oc1c(CC2CCOCC2)c(CCC2CCOCC2)nn1-c1nc2ccccc2[nH]1 [Compound I-178, 1-(1H-1,3-benzodiazol-2-yl)-3-[2-(oxan-4-yl)ethyl]-4-[(oxan-4-yl)methyl]-1H-pyrazol-5-ol] | 0 |  | 97.9 |  |  | 8.86E- 03 | 1.09e-05 | 7.72E + 00 minutes | 
6 | O=S(=O)(C1CCCCC1)N1CCC(c2nn(-c3nc4ccccc4[nH]3)c(O)c2CCc2ccc(F)cc2)CC1 [Compound I-747, 1-(1H-1,3-benzodiazo1-2-y1)-3-[1-(cyclohexanesulfonyl)piperidin-4-yl]-4-[2-(4-fluorophenyl)ethyl]-1H-pyrazol-5-ol] |  |  |  |  |  |  |  |  | HIV Infectivity % Control @ 1 μM (HIV-1NL4-3; 1 μM, TZM-bl reporter cells, % of control): 30.9%; HIV-1 Infectivity % Inhibition Norm. to Δ-Nef @ 1 μM (HIV-1NL4-3; 1 μM, TZM-bl, normalized: DMSO wild-type HIV-1 = 0%, Nef-defective HIV-1 = 100%): 179.3%; HIV-1 Infectivity % Inhibition Norm. to Δ-Nef @ 1 μM (HIV-1NL4-3; Table 1, TZM-bl cells, 1 μM, 48 h, 100% = Nef-defective HIV-1): 179.3%; Percent Viability @ 1 μM (TZM-bl cells) (TZM-bl cell line): 86.9%; Kd (HIV-1 NefNL4-3; KD, two-step induced-fit model, Reichert SPR, Table 3, read-out: Reichert SPR Nef NL43 (M) two-step fitting): 0.000257 M; Kd (HIV-1 NefNL4-3; Table 1, 1:1 Langmuir fit where the KD2 cell says '1 to 1 fitting', else 2-site fit, read-out: Nef NL4-3 Binding, SPR 1:1 or 2-site fitting KD1): 8.91e-08 M; Kd (HIV-1 NefNL4-3; Table 1, 2-site fit, second component, read-out: Nef NL4-3 Binding, SPR 1:1 or 2-site fitting KD2): 1.56e-06 M; Kd (HIV-1 NefNL4-3; Table 1, 2-step induced-fit model, read-out: Nef NL4-3 Binding, SPR 2-state fitting KD): 0.000257 M
7 | Oc1c(CC2CCOCC2)c(C2CC(F)(F)C2)nn1-c1nc2cccnc2[nH]1 [Compound I-316, 3-(3,3-difluorocyclobutyl)-1-{3H-imidazo[4,5-b]pyridin-2-yl}-4-[(oxan-4-yl)methyl]-1H-pyrazol-5-ol] | 32.8 |  | 99.7 |  |  | 1.19E- 03 |  |  | Kd (HIV-1 NefNL4-3; [7]): 4.49e-06 M; T, minutes (residence time) (HIV-1 NefNL4-3; [8]): 5.19E + 00 minutes
8 | O=C(O)c1ccc(-c2nn(-c3nc4ccccc4[nH]3)c(O)c2CCc2ccc(F)cc2)cc1 [Compound I-1101, 4-[1-(1H-1,3-benzodiazol-2-yl)-4-[2-(4-fluorophenyl)ethyl]-5-hydroxy-1H-pyrazol-3-yl]benzoic acid] |  | -9.9 |  | 99.3 | 3.76e-07 |  |  |  | 
9 | Oc1c(CCc2ccc(F)cc2)c(C2CCN(Cc3ccncc3)CC2)nn1-c1nc2ccccc2[nH]1 [Compound I-804, 1-(1H-1,3-benzodiazol-2-yl)-4-[2-(4-fluorophenyl)ethyl]-3-{1-[(pyridin-4-yl)methyl]piperidin-4-yl}-1H-pyrazol-5-ol] |  | 50 |  | 97.5 | 9.08e-08 |  |  |  | 
10 | CC(C)(C)OC(=O)N1CCC(c2nn(-c3nc4cccc(Cl)c4[nH]3)c(O)c2CCc2ccc(F)cc2)CC1 [Compound I-217, tert-butyl 4-[1-(7-chloro-1H-1,3-benzodiazol-2-yl)-4-[2-(4-fluorophenyl)ethyl]-5-hydroxy-1H-pyrazol-3-yl]piperidine-1-carboxylate] |  | 0.1 |  | 104.9 |  |  |  |  | Nef NL4-3 Binding, SPR 1:1 or 2-site fitting KD1 (HIV-1 NefNL4-3; Table 1, 1:1 Langmuir fit where the KD2 cell says '1 to 1 fitting', else 2-site fit): No Interaction
11 | CC(C)(C)OC(=O)N1CCN(Cc2nn(-c3nc4ccccc4[nH]3)c(O)c2CCc2ccc(F)cc2)CC1 [Compound I-211, tert-butyl 4-{[1-(1H-1,3-benzodiazol-2-yl)-4-[2-(4-fluorophenyl)ethyl]-5-hydroxy-1H-pyrazol-3-yl]methyl}piperazine-1-carboxylate] | 0 | -19.4 | 100 | 103.5 | 7.22e-06 | 2.89E- 03 |  |  | Kd (HIV-1 NefNL4-3; [7]): 7.22e-06 M; T, minutes (residence time) (HIV-1 NefNL4-3; [8]): 1.65E + 00 minutes
